A word on the IC50: it is the concentration needed to halve the response being measured.

The target in this assay is recombinant DYRK1A kinase (Homo sapiens, UniProt Q13627). Put plainly: DYRK1A kinase assay (Ser/Thr 18 peptide Z-lyte FRET). The class given is biochemical. The settings on record: DYRK1A 0.25 μg/mL, ATP 15 μM, Ser/Thr peptide 18 4 μM, one hour at room temperature, 11-point dose-response from 10 μM.
As to `CNc1nc(N[C@H]2CC[C@](C)(O)CC2)nn2cc(F)c(-c3ccc4nnn(CC(F)F)c4n3)c12` [Compound 286, (1r,4r)-4-((5-(3-(2,2-Difluoroethyl)-3H-[1,2,3]triazolo[4,5-b]pyridin-5-yl)-6-fluoro-4-(methylamino)pyrrolo[2,1-f][1,2,4]triazin-2-yl)amino)-1-methylcyclohexan-1-ol], the concentration for half-maximal inhibition (IC50) was 3.6 nM. Regarding `CNc1nc(N[C@H]2CCN(C(C)=O)C[C@H]2F)nn2cc(F)c(-c3ccc4nnn(CC(F)F)c4n3)c12` [Compound 288, 1-((3R,4S)-4-((5-(3-(2,2-Difluoroethyl)-3H-[1,2,3]triazolo[4,5-b]pyridin-5-yl)-6-fluoro-4-(methylamino)pyrrolo[2,1-f][1,2,4]triazin-2-yl)amino)-3-fluoropiperidin-1-yl)ethan-1-one], the half-inhibitory concentration (IC50) is 2.4 nM. For `CNc1nc(N[C@H]2CCN(C3COC3)C[C@H]2F)nn2cc(F)c(-c3ccc4nnn(CC(F)F)c4n3)c12` [Compound 290, 5-(3-(2,2-Difluoroethyl)-3H-[1,2,3]triazolo[4,5-b]pyridin-5-yl)-6-fluoro-N^2-((3R,4S)-3-fluoro-1-(oxetan-3-yl)piperidin-4-yl)-N^4-methylpyrrolo[2,1-f][1,2,4]triazine-2,4-diamine], the IC50 was 1.2 nM. In the case of `CNc1nc(N[C@@H]2CCN(C)CC2(F)F)nn2cc(F)c(-c3ccc4nnn(CC(F)F)c4n3)c12` [Compound 291, (R)—N^2-(3,3-Difluoro-1-methylpiperidin-4-yl)-5-(3-(2,2-difluoroethyl)-3H-[1,2,3]triazolo[4,5-b]pyridin-5-yl)-6-fluoro-N^4-methylpyrrolo[2,1-f][1,2,4]triazine-2,4-diamine] it was 1.2 nM. As for `CNc1nc(N[C@@H]2CCN(C(C)=O)CC2(F)F)nn2cc(F)c(-c3ccc4nnn(CC(F)F)c4n3)c12` [Compound 293, (R)-1-(4-((5-(3-(2,2-Difluoroethyl)-3H-[1,2,3]triazolo[4,5-b]pyridin-5-yl)-6-fluoro-4-(methylamino)pyrrolo[2,1-f][1,2,4]triazin-2-yl)amino)-3,3-difluoropiperidin-1-yl)ethan-1-one], the IC50 amounted to 1.9 nM.

For the compound `CNc1nc(N[C@@H]2CCN(C3COC3)CC2(F)F)nn2cc(F)c(-c3ccc4nnn(CC(F)F)c4n3)c12` [Compound 295, (R)—N^2-(3,3-Difluoro-1-(oxetan-3-yl)piperidin-4-yl)-5-(3-(2,2-difluoroethyl)-3H-[1,2,3]triazolo[4,5-b]pyridin-5-yl)-6-fluoro-N^4-methylpyrrolo[2,1-f][1,2,4]triazine-2,4-diamine], the concentration for half-maximal inhibition (IC50) was determined as 1.4 nM. Regarding `CNc1nc(N[C@H]2CCN(C)C[C@H]2F)nn2ccc(-c3ccc4nnn(CCCF)c4n3)c12` [Compound 333, N^2-((3R,4S)-3-Fluoro-1-methylpiperidin-4-yl)-5-(3-(3-fluoropropyl)-3H-[1,2,3]triazolo[4,5-b]pyridin-5-yl)-N^4-methylpyrrolo[2,1-f][1,2,4]triazine-2,4-diamine], the 50% inhibitory concentration (IC50) was 11.2 nM. Take `CNc1nc(N[C@H]2CCN(C(C)=O)C[C@H]2F)nn2ccc(-c3ccc4nnn(CCCF)c4n3)c12` [Compound 335, 1-((3R,4S)-3-Fluoro-4-((5-(3-(3-fluoropropyl)-3H-[1,2,3]triazolo[4,5-b]pyridin-5-yl)-4-(methylamino)pyrrolo[2,1-f][1,2,4]triazin-2-yl)amino)piperidin-1-yl)ethan-1-one]: the IC50 turned out to be 3.4 nM. With `CNc1nc(N[C@H]2CCN(C3COC3)C[C@H]2F)nn2ccc(-c3ccc4nnn(CCCF)c4n3)c12` [Compound 337, N^2-((3R,4S)-3-Fluoro-1-(oxetan-3-yl)piperidin-4-yl)-5-(3-(3-fluoropropyl)-3H-[1,2,3]triazolo[4,5-b]pyridin-5-yl)-N^4-methylpyrrolo[2,1-f][1,2,4]triazine-2,4-diamine], the IC50 is 4.4 nM. In the case of `CNc1nc(N[C@@H]2CCN(C)CC2(F)F)nn2ccc(-c3ccc4nnn(CCCF)c4n3)c12` [Compound 338, (R)—N^2-(3,3-Difluoro-1-methylpiperidin-4-yl)-5-(3-(3-fluoropropyl)-3H-[1,2,3]triazolo[4,5-b]pyridin-5-yl)-N^4-methylpyrrolo[2,1-f][1,2,4]triazine-2,4-diamine] it was 3.1 nM. In the case of `CNc1nc(N[C@@H]2CCN(C(C)=O)CC2(F)F)nn2ccc(-c3ccc4nnn(CCCF)c4n3)c12` [Compound 339, (R)-1-(3,3-Difluoro-4-((5-(3-(3-fluoropropyl)-3H-[1,2,3]triazolo[4,5-b]pyridin-5-yl)-4-(methylamino)pyrrolo[2,1-f][1,2,4]triazin-2-yl)amino)piperidin-1-yl)ethan-1-one] it was 3.5 nM; in that of `CCNc1nc(N[C@H]2CCN(C3COC3)C[C@H]2F)nn2ccc(-c3ccc4nnn(CC(F)F)c4n3)c12` [Compound 403, 5-(3-(2,2-Difluoroethyl)-3H-[1,2,3]triazolo[4,5-b]pyridin-5-yl)-N^4-ethyl-N^2-((3R,4S)-3-fluoro-1-(oxetan-3-yl)piperidin-4-yl)pyrrolo[2,1-f][1,2,4]triazine-2,4-diamine], 4.2 nM; in that of `CC(C)Nc1nc(N[C@H]2CCN(C3COC3)C[C@H]2F)nn2ccc(-c3ccc4nnn(CC(F)F)c4n3)c12` [Compound 411, 5-(3-(2,2-Difluoroethyl)-3H-[1,2,3]triazolo[4,5-b]pyridin-5-yl)-N^2-((3R,4S)-3-fluoro-1-(oxetan-3-yl)piperidin-4-yl)-N^4-isopropylpyrrolo[2,1-f][1,2,4]triazine-2,4-diamine], 9.7 nM. As to `FC(F)Cn1nnc2ccc(-c3ccn4nc(N[C@H]5CCN(C6COC6)C[C@H]5F)nc(NC5CC5)c34)nc21` [Compound 419, N^4-Cyclopropyl-5-(3-(2,2-difluoroethyl)-3H-[1,2,3]triazolo[4,5-b]pyridin-5-yl)-N^2-((3R,4S)-3-fluoro-1-(oxetan-3-yl)piperidin-4-yl)pyrrolo[2,1-f][1,2,4]triazine-2,4-diamine], the half-maximal inhibitory concentration (IC50) was found to be 8.2 nM.

Values taken from patent publication US20250340575A1, “4-AMINOPYRROLO[2,1-F][1,2,4]TRIAZINES AND PREPARATION AND USES THEREOF” (Biosplice Therapeutics, Inc., priority 2024, published 2025).
